Experimental data from ChEMBL document CHEMBL1135293, “Amino acid derived sulfonamide hydroxamates as inhibitors of procollagen C-proteinase. Part 2: Solid-phase optimization of side chains” (Bioorg Med Chem Lett, 2002).

Target: T1, Bone morphogenetic protein 1 (Homo sapiens, UniProt P13497)
T1 sequence (P13497 whole entry): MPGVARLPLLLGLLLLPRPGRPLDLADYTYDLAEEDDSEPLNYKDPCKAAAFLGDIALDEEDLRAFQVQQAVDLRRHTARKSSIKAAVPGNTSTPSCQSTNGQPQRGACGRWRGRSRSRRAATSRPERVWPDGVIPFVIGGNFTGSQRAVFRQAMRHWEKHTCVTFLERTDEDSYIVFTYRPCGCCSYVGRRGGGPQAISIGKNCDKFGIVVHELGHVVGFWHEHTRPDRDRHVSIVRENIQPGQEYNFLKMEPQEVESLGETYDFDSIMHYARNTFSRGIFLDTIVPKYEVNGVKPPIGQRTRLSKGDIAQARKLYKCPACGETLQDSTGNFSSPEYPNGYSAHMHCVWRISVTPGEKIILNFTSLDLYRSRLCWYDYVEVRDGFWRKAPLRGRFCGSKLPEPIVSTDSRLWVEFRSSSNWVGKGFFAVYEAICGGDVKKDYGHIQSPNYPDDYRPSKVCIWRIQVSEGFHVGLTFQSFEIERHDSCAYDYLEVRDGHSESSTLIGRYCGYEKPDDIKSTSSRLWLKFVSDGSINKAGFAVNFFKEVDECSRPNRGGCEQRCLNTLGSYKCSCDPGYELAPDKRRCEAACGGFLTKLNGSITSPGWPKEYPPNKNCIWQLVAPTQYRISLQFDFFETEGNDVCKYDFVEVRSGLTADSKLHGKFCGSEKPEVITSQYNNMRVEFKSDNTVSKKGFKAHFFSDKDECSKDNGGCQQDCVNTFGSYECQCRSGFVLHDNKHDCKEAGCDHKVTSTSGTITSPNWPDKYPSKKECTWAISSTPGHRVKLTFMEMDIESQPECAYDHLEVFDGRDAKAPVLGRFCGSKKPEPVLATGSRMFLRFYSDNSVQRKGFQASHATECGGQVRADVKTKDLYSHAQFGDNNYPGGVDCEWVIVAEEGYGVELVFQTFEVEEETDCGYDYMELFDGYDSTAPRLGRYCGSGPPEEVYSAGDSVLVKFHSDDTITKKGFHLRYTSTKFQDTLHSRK
Assay: Inhibitory activity against procollagen C-proteinase (PCP).

| IC50 | SMILES |
| --- | --- |
| 350 nM | COc1ccc(S(=O)(=O)N(Cc2ccc(C(C)C)cc2)[C@H](C)C(=O)O)cc1 |
| 470 nM | COc1ccc(S(=O)(=O)N(Cc2ccc3c(c2)OCO3)[C@H](CCC(=O)OC2CCCCC2)C(=O)O)cc1 |
| 390 nM | COc1ccc(S(=O)(=O)N(Cc2cccc(Cl)c2)[C@H](Cc2cccs2)C(=O)NO)cc1 |
| 100 nM | COc1ccc(S(=O)(=O)N(Cc2cccc(F)c2F)[C@H](Cc2cccs2)C(=O)NO)cc1 |
